Where “and” joins values, the source holds several entries; their conditions need not be identical. Identical values can stand only once.
Legend:
Details in all cases: incubation time: 72 h
HCC1599 = assay: drug sensitivity score (DSS), CellTiter-Glo (DSS (AUC-based score)); higher = stronger drug effect (viability inhibition or cytotoxicity); extreme values may be limits of the assay
In short: (§1)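 Breast cancer cell lines (20 µl suspension) were seeded into 384-well plates holding compound at 5 concentrations in 10-fold steps over a compound-specific 10,000-fold range, then incubated 72 h. CellTox Green fluorescence (485/520 nm) was read first, then CellTiter-Glo luminescence after 10 min at room temperature. Each plate was normalised to 0.1 % DMSO and a positive kill control. The drug sensitivity score was calculated from the area under the fitted dose-response curve.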

BT-549 [1] = assay: as above
In short: as §1

Hs578T = assay: as above
In short: as §1

HDQ-P1 = assay: as above
In short: as §1

MDA-MB-453 [2] = assay: as above
In short: as §1

HCC1937 = assay: as above
In short: as §1

MDA-MB-231 [3] = assay: as above
In short: as §1

CAL-85-1 [4] = assay: as above
In short: as §1

CAL-148 [5] = assay: as above
In short: as §1

MCF-10A = assay: as above
In short: as §1

MDA-MB-436 = assay: as above
In short: as §1

MDA-MB-468 [6] = assay: as above
In short: as §1

CAL-120 = assay: as above
In short: as §1

HCC1143 = assay: as above
In short: as §1

MFM-223 [7] = assay: as above
In short: as §1

BT-549 [8] = assay: normalised viability (% of control), CellTiter-Blue; higher = more viable cells (about 100 = DMSO control)
In short: (§2)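 Vehicle (100) and a positive kill control (0) anchored the normalisation of each plate, and Z'-factor was used for quality control. Breast cancer cell lines in 20 µl suspension were incubated 72 h over compound in 5 µl medium in 384-well plates, followed by CellTiter-Blue at 560/590 nm. The value is normalised viability at a single listed concentration of the series.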

CAL-51 = assay: as above
In short: as §2

MDA-MB-453 [9] = assay: as above
In short: as §2

MDA-MB-231 [10] = assay: as above
In short: as §2

SK-BR-3 = assay: as above
In short: as §2

CAL-85-1 [11] = assay: as above
In short: as §2

CAL-148 [12] = assay: as above
In short: as §2

MDA-MB-468 [13] = assay: as above
In short: as §2

BT-474 = assay: as above
In short: as §2

MFM-223 [14] = assay: as above
In short: as §2

CC1(C)CCC(c2ccc(Cl)cc2)=C(CN2CCN(c3ccc(C(=O)NS(=O)(=O)c4ccc(N[C@H](CCN5CCOCC5)CSc5ccccc5)c(S(=O)(=O)C(F)(F)F)c4)cc3)CC2)C1 [Navitoclax]
Details	drug sensitivity score
BT-549 [1]	0.252
CAL-85-1 [4]	0.831
CAL-120	7.04
CAL-148 [5]	2
HCC1143	0
HCC1599	0
HCC1937	3.57
HDQ-P1	4.94
Hs578T	0
MCF-10A	0
MDA-MB-231 [3]	11.1
MDA-MB-436	0
MDA-MB-453 [2]	3.71
MDA-MB-468 [6]	4.81
MFM-223 [7]	2.94

normalised viability [%]
Details	BT-474	BT-549 [8]	CAL-51	CAL-85-1 [11]	CAL-148 [12]	MDA-MB-231 [10]	MDA-MB-453 [9]	MDA-MB-468 [13]	MFM-223 [14]	SK-BR-3
3 nM	–	–	112	84.1	85.1	–	104	–	–	–
10 nM	96.3	80.7	–	–	–	74.7	–	91.9	77.2	83.8
30 nM	–	–	104	81.1	88.2	–	88.5	–	–	–
100 nM	–	–	101	85.3	89.2	–	74.9	–	–	–
1000 nM	95.2	79.7	–	–	–	55.7	–	81.6	68.7	86
10000 nM	63	78.1	–	–	–	30.6	–	71.2	40.6	73.2

Cc1cn(-c2cc(NC(=O)c3ccc(C)c(Nc4nccc(-c5cccnc5)n4)c3)cc(C(F)(F)F)c2)cn1 [Nilotinib]
Details	drug sensitivity score
BT-549 [1]	1.04
CAL-85-1 [4]	0
CAL-120	0
CAL-148 [5]	0
HCC1143	0
HCC1599	0
HCC1937	0
HDQ-P1	0
Hs578T	0
MCF-10A	0
MDA-MB-231 [3]	0
MDA-MB-436	0
MDA-MB-453 [2]	0
MDA-MB-468 [6]	0
MFM-223 [7]	0

normalised viability
Details	BT-474	BT-549 [8]	CAL-51	CAL-85-1 [11]	CAL-148 [12]	MDA-MB-231 [10]	MDA-MB-453 [9]	MDA-MB-468 [13]	MFM-223 [14]	SK-BR-3
3 nM	–	–	107% and 112%	87% and 87.5%	77% and 88.5%	–	111% and 103%	–	–	–
10 nM	107% and 99.8%	97.3% and 88.6%	–	–	–	87.6% and 94.3%	–	100% and 102%	92.3% and 91.1%	104% and 94.5%
30 nM	–	–	108% and 106%	81.8% and 80.2%	86.2% and 93.4%	–	95.6% and 90%	–	–	–
100 nM	–	–	101% and 111%	85.7% and 90.7%	90.8% and 95.3%	–	91.7% and 103%	–	–	–
1000 nM	93.9% and 106%	71.5% and 73.6%	–	–	–	71.3% and 75.2%	–	108% and 106%	98.9% and 91%	100% and 96.5%
10000 nM	92.1% and 103%	43.4% and 40.7%	–	–	–	57.3% and 45.2%	–	97.5% and 108%	91.7% and 89.4%	90.4% and 94.3%

O=C(CCCCCCC(=O)Nc1ccccc1)NO [Vorinostat]
Details	drug sensitivity score
BT-549 [1]	1.14
CAL-85-1 [4]	4.06
CAL-120	3.27
CAL-148 [5]	5.5
HCC1143	4.04
HCC1599	4.43
HCC1937	3.4
HDQ-P1	2.32
Hs578T	2.53
MCF-10A	1.17
MDA-MB-231 [3]	5.59
MDA-MB-436	0
MDA-MB-453 [2]	10.6
MDA-MB-468 [6]	8.49
MFM-223 [7]	3.32

Details	normalised viability
BT-474, 10 nM	98.6% and 105%
BT-474, 1000 nM	92.6% and 78.7%
BT-474, 10000 nM	3.63% and 2.44%
BT-549 [8], 10 nM	108% and 102%
BT-549 [8], 1000 nM	89.2% and 82.3%
BT-549 [8], 10000 nM	48% and 33.2%
CAL-51, 3 nM	113% and 102%
CAL-51, 30 nM	102%
CAL-51, 100 nM	106% and 97.5%
CAL-85-1 [11], 3 nM	91% and 103%
CAL-85-1 [11], 30 nM	85.7% and 96.9%
CAL-85-1 [11], 100 nM	100% and 106%
CAL-148 [12], 3 nM	78% and 95.3%
CAL-148 [12], 30 nM	90.2% and 100%
MDA-MB-231 [10], 10 nM	99.4% and 89.5%
MDA-MB-231 [10], 1000 nM	88.3% and 84.1%
MDA-MB-231 [10], 10000 nM	13.9% and 12.9%
MDA-MB-453 [9], 3 nM	107% and 96.8%
MDA-MB-468 [13], 10 nM	105%
MDA-MB-468 [13], 1000 nM	80.6% and 76%
MDA-MB-468 [13], 10000 nM	32.5% and 40.6%
MFM-223 [14], 10 nM	97.4% and 103%
MFM-223 [14], 1000 nM	84% and 74%
MFM-223 [14], 10000 nM	19.7% and 18.4%
SK-BR-3, 10 nM	104% and 95.2%
SK-BR-3, 1000 nM	54.3% and 45.8%
SK-BR-3, 10000 nM	3.79% and 4.28%

From the supplement of paper PMC4862054
